Measurements reported in patent publication US12582656B2, “Nucleotide analogues” (R.G.C.C. Holdings AG, priority 2020, dated 2026).

Experiments:
[1] = molecular target: SARS-COV-2 polymerase NSP12 (Severe acute respiratory syndrome coronavirus 2, UniProt P0DTD1); test: SARS-CoV-2 RNA polymerization assay with RdRp catalytic domain, PAGE gel (FIG. 2); type: biochemical; conditions: rATP split 50:50 with compound, 37° C. for 2 h
Polymerase = test: SYBR Green qPCR with modified adenosine analogues added, Ct measured; type: biochemical; conditions: for effect on amplification of the template (qPCR): dose-dependent, efficacy higher for phosphate than hydroxyl at same concentration
Procedure: In a second set of experiments, the modified adenosine analogues were added in a SYBR Green qPCR mix, and reactions performed using the same template and primers as above. The Ct (Threshold Cycle) parameter was measured for each condition. The Ct is the cycle number at which the fluorescence generated within a reaction crosses the fluorescence threshold. The higher the Ct, the lower the amount of product (or lower expression).
At the same concentration, the efficacy of inhibition of amplification was higher for phosphate than hydroxyl.

[2] = gene 18SrRNA, substance 0.075 mM (Final)
[3] = gene 18SrRNA, substance 0.15 mM (Final)
[4] = gene 18SrRNA, substance 0.3 mM (Final)
[5] = gene ACTB, substance 0.075 mM (Final)
[6] = gene ACTB, substance 0.15 mM (Final)
[7] = gene ACTB, substance 0.3 mM (Final)

Row | Compound | in vitro replication of the SARS-CoV-2 RNA via the SARS-CoV-2 RNA polymerase [1] | effect on amplification of the template (qPCR) (Polymerase) | Ct Mean (Polymerase; [2]) | Ct Mean (Polymerase; [3]) | Ct Mean (Polymerase; [4]) | Ct Mean (Polymerase; [5]) | Ct Mean (Polymerase; [6]) | Ct Mean (Polymerase; [7])
1 | Nc1ncnc2c1ncn2C1OC(COP(=O)(O)OP(=O)(O)OP(=O)(O)O)CC1O.[Na] (stereo not drawn) [commercial inhibitor, Cordycepin 5′-triphosphate sodium salt, reference compound] | polymerization blocked |  |  |  |  |  |  | 
2 | Nc1ncnc2c1ncn2-c1nc(O)c2ccccc2n1 [Compound A, 2-(6-amino-9H-purin-9-yl)quinazolin-4-ol] | inhibits | decrease of the amplification of the template | 12.88 | 13.43 | 14.84 | 20.08 | 20.55 | 21.14
3 | Nc1ncnc2c1ncn2-c1nc(OP(=O)(O)O)c2ccccc2n1 [Compound C, 2-(6-amino-9H-purin-9-yl)quinazolin-4-yl dihydrogen phosphate] | inhibits | decrease of the amplification of the template | 12.78 | 13.70 | 15.98 | 20.15 | 20.91 | 21.82
4 | Nc1ncnc2c1ncn2-c1nc(O)c2ccc(F)cc2n1 [Compound B, 2-(6-amino-9H-purin-9-yl)-7-fluoro-quinazolin-4-ol] | inhibits |  |  |  |  |  |  | 
